Measured values as given in PubChem BioAssay AID1919014 (Molecular Pharmacology Branch, DTP, NCI, 2023).
One block for each compound: values may come before it.

System: NCI-H1341 complex spheroids, percent test/control
Test: Anticancer human tumor NCI-H1341 cell line growth inhibition [AhR];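 further: spheroids exposed to agents for seven days before readout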
Settings: for IC50: curve of first compound; for viability, T/C: stronger effect = lower value
Summary of the method: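 Complex tumor spheroids co-cultured with HUVEC and human MSC stroma; AhR antagonists tested in combination with standard-of-care and investigational agents. Top concentration at or near clinical Cmax (else 10 microM), half-log dilutions; growth expressed as percent test/control.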

[1] = second compound 0.1 µM, first compound 0.0316 µM
[2] = second compound 0.1 µM, first compound 0.1 µM
[3] = second compound 0.316 µM, first compound 0.0316 µM
[4] = second compound 0.316 µM, first compound 0.1 µM
[5] = second compound 1 µM, first compound 0.0316 µM
[6] = second compound 1 µM, first compound 0.1 µM
[7] = second compound 3.16 µM, first compound 0.0316 µM
[8] = second compound 3.16 µM, first compound 0.1 µM
[9] = second compound 10 µM, first compound 0.0316 µM
[10] = second compound 10 µM, first compound 0.1 µM

IC50 (second compound 0.1 µM): > 100 nM
IC50 (second compound 0.316 µM): > 100 nM
IC50 (second compound 1 µM): > 100 nM
IC50 (second compound 3.16 µM): > 100 nM
IC50 (second compound 10 µM): < 0.316 nM
SMILES: Cn1ncnc1C1c2n[nH]c(=O)c3cc(F)cc(c23)NC1c1ccc(F)cc1 (stereo not given) + Cc1cncc(-c2nc(NCCc3c[nH]c4ccccc34)c3ncn(C(C)C)c3n2)c1
viability, T/C (second compound 0.1 µM, first compound 0.000316 µM): 99.9%
viability, T/C (second compound 0.1 µM, first compound 0.001 µM): 98.5%
viability, T/C (second compound 0.1 µM, first compound 0.00316 µM): 93.4%
viability, T/C (second compound 0.1 µM, first compound 0.01 µM): 89.3%
viability, T/C [1]: 80.6%
viability, T/C [2]: 69.1%
viability, T/C (second compound 0.316 µM, first compound 0.000316 µM): 87%
viability, T/C (second compound 0.316 µM, first compound 0.001 µM): 86.8%
viability, T/C (second compound 0.316 µM, first compound 0.00316 µM): 89.2%
viability, T/C (second compound 0.316 µM, first compound 0.01 µM): 91.7%
viability, T/C [3]: 66.8%
viability, T/C [4]: 73.4%
viability, T/C (second compound 1 µM, first compound 0.000316 µM): 78.2%
viability, T/C (second compound 1 µM, first compound 0.001 µM): 79.8%
viability, T/C (second compound 1 µM, first compound 0.00316 µM): 88.2%
viability, T/C (second compound 1 µM, first compound 0.01 µM): 95.6%
viability, T/C [5]: 80.6%
viability, T/C [6]: 64.5%
viability, T/C (second compound 3.16 µM, first compound 0.000316 µM): 73.9%
viability, T/C (second compound 3.16 µM, first compound 0.001 µM): 75.6%
viability, T/C (second compound 3.16 µM, first compound 0.00316 µM): 75.6%
viability, T/C (second compound 3.16 µM, first compound 0.01 µM): 72.6%
viability, T/C [7]: 77.2%
viability, T/C [8]: 62.5%
viability, T/C (second compound 10 µM, first compound 0.000316 µM): 38.7%
viability, T/C (second compound 10 µM, first compound 0.001 µM): 40.6%
viability, T/C (second compound 10 µM, first compound 0.00316 µM): 43.9%
viability, T/C (second compound 10 µM, first compound 0.01 µM): 42.1%
viability, T/C [9]: 36.1%
viability, T/C [10]: 40.2%

IC50 (second compound 0.1 µM): 108 nM
IC50 (second compound 0.316 µM): 83.3 nM
IC50 (second compound 1 µM): < 31.6 nM
IC50 (second compound 3.16 µM): < 31.6 nM
IC50 (second compound 10 µM): < 31.6 nM
SMILES: NS(=O)(=O)OCC1CC(n2ccc3c(NC4CCc5ccccc54)ncnc32)CC1O (stereo not given) + Cc1cncc(-c2nc(NCCc3c[nH]c4ccccc34)c3ncn(C(C)C)c3n2)c1
viability, T/C [1]: 50.1%
viability, T/C [2]: 52.7%
viability, T/C (second compound 0.1 µM, first compound 0.316 µM): 33.8%
viability, T/C (second compound 0.1 µM, first compound 1 µM): 15.5%
viability, T/C (second compound 0.1 µM, first compound 3.16 µM): 14%
viability, T/C (second compound 0.1 µM, first compound 10 µM): 12.5%
viability, T/C [3]: 54.4%
viability, T/C [4]: 48.5%
viability, T/C (second compound 0.316 µM, first compound 0.316 µM): 34.8%
viability, T/C (second compound 0.316 µM, first compound 1 µM): 17.6%
viability, T/C (second compound 0.316 µM, first compound 3.16 µM): 16.8%
viability, T/C (second compound 0.316 µM, first compound 10 µM): 12.4%
viability, T/C [5]: 42%
viability, T/C [6]: 43.6%
viability, T/C (second compound 1 µM, first compound 0.316 µM): 35.5%
viability, T/C (second compound 1 µM, first compound 1 µM): 18.4%
viability, T/C (second compound 1 µM, first compound 3.16 µM): 15.7%
viability, T/C (second compound 1 µM, first compound 10 µM): 15.8%
viability, T/C [7]: 49.4%
viability, T/C [8]: 41.6%
viability, T/C (second compound 3.16 µM, first compound 0.316 µM): 41.4%
viability, T/C (second compound 3.16 µM, first compound 1 µM): 27.6%
viability, T/C (second compound 3.16 µM, first compound 3.16 µM): 19.5%
viability, T/C (second compound 3.16 µM, first compound 10 µM): 17%
viability, T/C [9]: 26.4%
viability, T/C [10]: 31.7%
viability, T/C (second compound 10 µM, first compound 0.316 µM): 29.9%
viability, T/C (second compound 10 µM, first compound 1 µM): 25.2%
viability, T/C (second compound 10 µM, first compound 3.16 µM): 21.4%
viability, T/C (second compound 10 µM, first compound 10 µM): 20.1%
